{"source": "PubChem BioAssay (NCI)", "assay_in_all_cases": "NCI anticancer screen, dose series, 48 h", "key": {"786-0 renal": {"tested_on": "786-0 renal"}, "A498 renal": {"tested_on": "A498 renal"}, "ACHN renal": {"tested_on": "ACHN renal"}, "BT-549 breast": {"tested_on": "BT-549 breast"}, "CAKI-1 renal": {"tested_on": "CAKI-1 renal"}, "COLO 205 colon": {"tested_on": "COLO 205 colon"}, "DU-145 prostate": {"tested_on": "DU-145 prostate"}, "HCC-2998 colon": {"tested_on": "HCC-2998 colon"}, "HCT-116 colon": {"tested_on": "HCT-116 colon"}, "HCT-15 colon": {"tested_on": "HCT-15 colon"}, "HL-60(TB) leukemia": {"tested_on": "HL-60(TB) leukemia"}, "HOP-62 NSCLC": {"tested_on": "HOP-62 NSCLC"}, "HOP-92 NSCLC": {"tested_on": "HOP-92 NSCLC"}, "HS 578T breast": {"tested_on": "HS 578T breast"}, "HT29 colon": {"tested_on": "HT29 colon"}, "IGROV1 ovarian": {"tested_on": "IGROV1 ovarian"}, "K-562 leukemia": {"tested_on": "K-562 leukemia"}, "KM12 colon": {"tested_on": "KM12 colon"}, "LOX IMVI melanoma": {"tested_on": "LOX IMVI melanoma"}, "M14 melanoma": {"tested_on": "M14 melanoma"}, "MALME-3M melanoma": {"tested_on": "MALME-3M melanoma"}, "MCF7 breast": {"tested_on": "MCF7 breast"}, "MDA-MB-231 breast": {"tested_on": "MDA-MB-231 breast"}, "MDA-MB-435": {"tested_on": "MDA-MB-435"}, "MOLT-4 leukemia": {"tested_on": "MOLT-4 leukemia"}, "NCI-H226 lung": {"tested_on": "NCI-H226 lung"}, "NCI-H23 lung": {"tested_on": "NCI-H23 lung"}}, "note": "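Test compounds were applied to cells in 96-well plates for 48 hours at 5 doses. GI50 marks 50% less growth. TGI is the concentration that stops growth completely.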"}
{"molecule": "CCCCc1ccc(NS(=O)(=O)c2cc3c4c(c2)CCN4C(=O)CC3)cc1", "values": [{"measurement": "GI50", "setting": "786-0 renal", "result": 17.9, "unit": "µM"}, {"measurement": "TGI", "setting": "786-0 renal", "result": 74.6, "unit": "µM"}, {"measurement": "GI50", "setting": "A498 renal", "result": 5.82, "unit": "µM"}, {"measurement": "TGI", "setting": "A498 renal", "result": 37.5, "unit": "µM"}, {"measurement": "GI50", "setting": "ACHN renal", "result": 15.7, "unit": "µM"}, {"measurement": "TGI", "setting": "ACHN renal", "result": "> 100", "unit": "µM"}, {"measurement": "GI50", "setting": "BT-549 breast", "result": 18, "unit": "µM"}, {"measurement": "TGI", "setting": "BT-549 breast", "result": "> 100", "unit": "µM"}, {"measurement": "GI50", "setting": "CAKI-1 renal", "result": 8.49, "unit": "µM"}, {"measurement": "TGI", "setting": "CAKI-1 renal", "result": 78.5, "unit": "µM"}, {"measurement": "GI50", "setting": "COLO 205 colon", "result": 25.1, "unit": "µM"}, {"measurement": "TGI", "setting": "COLO 205 colon", "result": 87.2, "unit": "µM"}, {"measurement": "GI50", "setting": "DU-145 prostate", "result": 35.5, "unit": "µM"}, {"measurement": "TGI", "setting": "DU-145 prostate", "result": "> 100", "unit": "µM"}, {"measurement": "GI50", "setting": "HCC-2998 colon", "result": 89.5, "unit": "µM"}, {"measurement": "TGI", "setting": "HCC-2998 colon", "result": "> 100", "unit": "µM"}, {"measurement": "GI50", "setting": "HCT-116 colon", "result": 17.5, "unit": "µM"}, {"measurement": "TGI", "setting": "HCT-116 colon", "result": "> 100", "unit": "µM"}, {"measurement": "GI50", "setting": "HCT-15 colon", "result": 17, "unit": "µM"}, {"measurement": "TGI", "setting": "HCT-15 colon", "result": "> 100", "unit": "µM"}, {"measurement": "GI50", "setting": "HL-60(TB) leukemia", "result": 12.2, "unit": "µM"}, {"measurement": "TGI", "setting": "HL-60(TB) leukemia", "result": 58.3, "unit": "µM"}, {"measurement": "GI50", "setting": "HOP-62 NSCLC", "result": 28.5, "unit": "µM"}, {"measurement": "TGI", "setting": "HOP-62 NSCLC", "result": 94.1, "unit": "µM"}, {"measurement": "GI50", "setting": "HOP-92 NSCLC", "result": 9.27, "unit": "µM"}, {"measurement": "TGI", "setting": "HOP-92 NSCLC", "result": 36.4, "unit": "µM"}, {"measurement": "GI50", "setting": "HS 578T breast", "result": 15.2, "unit": "µM"}, {"measurement": "TGI", "setting": "HS 578T breast", "result": 61.2, "unit": "µM"}, {"measurement": "GI50", "setting": "HT29 colon", "result": 32.5, "unit": "µM"}, {"measurement": "TGI", "setting": "HT29 colon", "result": "> 100", "unit": "µM"}, {"measurement": "GI50", "setting": "IGROV1 ovarian", "result": 44.4, "unit": "µM"}, {"measurement": "TGI", "setting": "IGROV1 ovarian", "result": "> 100", "unit": "µM"}, {"measurement": "GI50", "setting": "K-562 leukemia", "result": 9.3, "unit": "µM"}, {"measurement": "TGI", "setting": "K-562 leukemia", "result": "> 100", "unit": "µM"}, {"measurement": "GI50", "setting": "KM12 colon", "result": 26.9, "unit": "µM"}, {"measurement": "TGI", "setting": "KM12 colon", "result": "> 100", "unit": "µM"}, {"measurement": "GI50", "setting": "LOX IMVI melanoma", "result": 35.1, "unit": "µM"}, {"measurement": "TGI", "setting": "LOX IMVI melanoma", "result": "> 100", "unit": "µM"}, {"measurement": "GI50", "setting": "M14 melanoma", "result": 19.8, "unit": "µM"}, {"measurement": "TGI", "setting": "M14 melanoma", "result": "> 100", "unit": "µM"}, {"measurement": "GI50", "setting": "MALME-3M melanoma", "result": 35.4, "unit": "µM"}, {"measurement": "TGI", "setting": "MALME-3M melanoma", "result": "> 100", "unit": "µM"}, {"measurement": "GI50", "setting": "MCF7 breast", "result": 9.94, "unit": "µM"}, {"measurement": "TGI", "setting": "MCF7 breast", "result": "> 100", "unit": "µM"}, {"measurement": "GI50", "setting": "MDA-MB-231 breast", "result": 16.1, "unit": "µM"}, {"measurement": "TGI", "setting": "MDA-MB-231 breast", "result": "> 100", "unit": "µM"}, {"measurement": "GI50", "setting": "MDA-MB-435", "result": 16.9, "unit": "µM"}, {"measurement": "TGI", "setting": "MDA-MB-435", "result": "> 100", "unit": "µM"}, {"measurement": "GI50", "setting": "MOLT-4 leukemia", "result": 11.2, "unit": "µM"}, {"measurement": "TGI", "setting": "MOLT-4 leukemia", "result": 77.6, "unit": "µM"}, {"measurement": "GI50", "setting": "NCI-H226 lung", "result": 15.9, "unit": "µM"}, {"measurement": "TGI", "setting": "NCI-H226 lung", "result": "> 100", "unit": "µM"}, {"measurement": "GI50", "setting": "NCI-H23 lung", "result": 10.6, "unit": "µM"}]}
